Data from ChEMBL document CHEMBL3507680, “University of Dundee, Gates Library screen for HepG2 cell viability”.

Assay: Human HepG2 cell viability assay in 384 well format
Format: toxicity, cell-based
Set-up: dose 125 nL, time 70.5 hour; concentration not given beside the values
Details: HepG2 cells, read-out: Inhibition

Compound `Cc1ccc2cccc(S(=O)(=O)N(C)CC3CCN(C)C3)c2n1` (configuration not stated) has a cytotoxicity at 70.5 h of -0.784%.

`O=C(NCC1(O)CCC1)c1cccc(-n2cccn2)c1` gave a cytotoxicity at 70.5 h of -11.6%.

Work on `CCC(O)CN(C)Cc1nnc2ccccn12` (configuration not stated) yielded a cytotoxicity at 70.5 h of 9.61%.

With `O=C1CN(c2ccc(CNc3cncc(-n4cccn4)n3)cc2)CCN1` the cytotoxicity at 70.5 h was -0.149%.

With `CC(C)(C)c1cnc(CN2CCC(NC(=O)NC3CCCCC3)CC2)o1` the cytotoxicity at 70.5 h was 1.07%.

For `CCCNC(=O)c1ccc(-c2ccco2)[nH]c1=O`, the cytotoxicity at 70.5 h was -2.1%.

`CC(C)CCNC(=O)c1ccc(-c2ccco2)[nH]c1=O` showed a cytotoxicity at 70.5 h of -1.63%.

Compound `CCc1noc(CN(CC(=O)N2CCCCC2)c2cccc(C)c2)n1` has a cytotoxicity at 70.5 h of -3.01%.

`Cc1nc(-c2ccco2)ccc1C(=O)N1CCc2nnc(N)cc2C1` showed a cytotoxicity at 70.5 h of -1.99%.

With `CCc1nnsc1C(=O)NC1CCN(CCOc2ccc(Br)cc2)CC1` the cytotoxicity at 70.5 h was -4.31%.

Work on `Cc1nsc(N2CCN(C(=O)Nc3cccc(C#N)c3)CC2)n1` yielded a cytotoxicity at 70.5 h of -0.0722%.

For `Cc1nc(-c2ccccc2)sc1CSCCC(N)=O`, the cytotoxicity at 70.5 h was 12.1%.

For `CC(=O)Nc1ccc(F)c(S(=O)(=O)NC(C)(C)C)c1`, the cytotoxicity at 70.5 h was -6.2%.

Work on `CCN1CCC2(CC1)CC(CC(=O)N(C)C)c1ccc(F)cc12` (configuration not stated) yielded a cytotoxicity at 70.5 h of 33.5%.

Work on `CN1CCN(Cc2cn3c(n2)CN(Cc2ccncc2)CC3)CC1` yielded a cytotoxicity at 70.5 h of 14%.

`O=C(Cc1ccsc1)N1C[C@H]2CCC[C@@]2(COCc2ccccn2)C1` gave a cytotoxicity at 70.5 h of 10.5%.

In the case of `COCc1cnc2n1CCN(C(=O)c1cn(C)c3ccccc13)C2C` (configuration not stated), the cytotoxicity at 70.5 h is reported as -5.93%.

`O=C(CC1CC2(CCNCC2)c2ccccc21)NCC1CC1` (configuration not stated) gave a cytotoxicity at 70.5 h of 11.3%.

`Cn1cc(CNC2CCc3c(ccc(=O)n3C)C2)cn1` (configuration not stated) showed a cytotoxicity at 70.5 h of -2.72%.

Compound `CC(C)OC[C@H]1CCC[C@]12CN(C(=O)C1CCOCC1)CCO2` has a cytotoxicity at 70.5 h of -8.49%.

`COC[C@@H]1CCC[C@@]12CN(C(=O)N1CCCC1)CCO2` showed a cytotoxicity at 70.5 h of -12.3%.

With `CC(=O)NCc1nnn2c1CN(c1ncccn1)CCC2` the cytotoxicity at 70.5 h was -7.48%.

For `O=C(C1CCOCC1)N1C[C@H]2CCC[C@@]2(COCc2ccccn2)C1`, the cytotoxicity at 70.5 h was -10.2%.

Compound `Cc1ccc(CNC(=O)c2nc3c(n2C)CCN(c2ncccn2)C3)o1` has a cytotoxicity at 70.5 h of -1.28%.

`COc1nn(C)c2c1CCCN(C(=O)c1cscn1)C2` showed a cytotoxicity at 70.5 h of 2.23%.

`COc1nn(C)c2c1CCCN(C(=O)c1cnccn1)C2` gave a cytotoxicity at 70.5 h of 1.47%.

`COCC(=O)NCc1cc(=O)n2c(n1)CN(Cc1ccncc1)CCC2` showed a cytotoxicity at 70.5 h of -0.67%.

`O=C(C1CCOCC1)N1CC[C@H](O)[C@@H]1Cc1cccnc1` gave a cytotoxicity at 70.5 h of -0.0587%.

In the case of `CN1CCC2(CCN(C(=O)c3cccnc3)C2)C1` (configuration not stated), the cytotoxicity at 70.5 h is reported as 0.955%.

Work on `O=C(C1=CCCC1)N1C[C@@H]2COC[C@]2(COCc2ccncc2)C1` yielded a cytotoxicity at 70.5 h of -3.75%.

With `COCCNC(=O)[C@H]1CO[C@H]2CCN(Cc3cccs3)C[C@H]2C1` the cytotoxicity at 70.5 h was -1.82%.

With `c1ccc(CO[C@@H]2CN(Cc3ccoc3)[C@@H]3COC[C@@H]32)nc1` the cytotoxicity at 70.5 h was 13%.

In the case of `O=C(c1ccncc1)N1CCC2(CC1)CCN(C(=O)c1cccnc1)C2`, the cytotoxicity at 70.5 h is reported as -7.65%.

Compound `CCO[C@H]1CC[C@H]2[C@@H]1OCCN2C(=O)COc1ccccc1` has a cytotoxicity at 70.5 h of 27.1%.

Compound `CS(=O)(=O)NC[C@]12COC[C@H]1CN(C(=O)C1CC(F)(F)C1)C2` has a cytotoxicity at 70.5 h of -2.39%.

For `Cc1cnc(N2CCc3c(c(COc4cncnc4)nn3C)C2)nc1`, the cytotoxicity at 70.5 h was -6.03%.

With `CN(Cc1cncnc1)[C@H]1CN(C(=O)c2ccco2)[C@@H]2CCCO[C@@H]21` the cytotoxicity at 70.5 h was -10.9%.

`CN(Cc1cncnc1)[C@H]1CN(C(=O)c2ccc[nH]2)[C@@H]2CCCO[C@@H]21` showed a cytotoxicity at 70.5 h of -8.37%.

Compound `CS(=O)(=O)NC[C@]12COC[C@H]1CN(C(=O)C1CC=CC1)C2` has a cytotoxicity at 70.5 h of -3.37%.

`CNC(=O)[C@@H]1C[C@@H]2CCN(Cc3ccoc3)C[C@H]2O1` showed a cytotoxicity at 70.5 h of -6.85%.

For `O=C(c1cscn1)N1CC[C@H]2C[C@H](c3nnc(C4CC4)o3)O[C@@H]2C1`, the cytotoxicity at 70.5 h was -10.6%.

Work on `CCOCCn1c(=O)[nH]c2cc(C(=O)N(C)Cc3cnn(C)c3)ccc21` yielded a cytotoxicity at 70.5 h of -4.48%.

With `CSc1nccc(N2CCC3(CCCN(Cc4ccc(F)cc4)C3)C2)n1` (configuration not stated) the cytotoxicity at 70.5 h was -3.25%.

`CNc1nc(C(=O)N2CCCC(COc3ccc(F)cc3)C2)cs1` (configuration not stated) showed a cytotoxicity at 70.5 h of 3.44%.

`O=C(c1onc2ccccc12)N1CCC2(CCCNC2)C1` (configuration not stated) gave a cytotoxicity at 70.5 h of -16.6%.

With `CN(Cc1csc(-c2cccs2)n1)Cc1cccnc1N` the cytotoxicity at 70.5 h was -14.6%.

Compound `COCCN(Cc1ccc(C)cc1)CC1CCOC1` (configuration not stated) has a cytotoxicity at 70.5 h of -5.9%.

`CCn1cnnc1CN(C)Cc1nc(-c2cc(OC)ccc2F)oc1C` showed a cytotoxicity at 70.5 h of -6.85%.

Work on `CCCn1nc(C)c2c1NC(=O)CC2c1ccc(CN2CCCC2)s1` (configuration not stated) yielded a cytotoxicity at 70.5 h of -9.08%.

Compound `CCc1cnc(C)nc1NCCSc1nnc(C)n1CC` has a cytotoxicity at 70.5 h of 0.501%.

Work on `Cn1c(Cn2ccnc2)nnc1C1CCCN(Cc2ccncc2)C1` (configuration not stated) yielded a cytotoxicity at 70.5 h of 14%.

Work on `CCC(NC(=O)CCNC(=O)c1ccccc1F)c1cc(C)ccn1` (configuration not stated) yielded a cytotoxicity at 70.5 h of -0.798%.

In the case of `CCCN(Cc1ccc(C(=O)NCC2COCCO2)c(=O)[nH]1)C1CC1` (configuration not stated), the cytotoxicity at 70.5 h is reported as 50.6%.

`CN1CC2(CCCN(CCOCc3ccccc3)C2)OC1=O` (configuration not stated) showed a cytotoxicity at 70.5 h of -3.02%.

In the case of `CC(C)[C@@H]1CN(C(=O)CCn2ccccc2=O)C[C@H]1NS(C)(=O)=O`, the cytotoxicity at 70.5 h is reported as -7.19%.

Compound `COc1ncccc1-c1cc(C(N)=O)ccn1` has a cytotoxicity at 70.5 h of 19.5%.

`Cc1ccc2nc(C)cc(C(=O)N3C[C@H]4CCC[C@@]4(CO)C3)c2c1` gave a cytotoxicity at 70.5 h of -6.32%.

Compound `c1cncc(COC[C@@H]2CCC[C@@]23CNCCO3)c1` has a cytotoxicity at 70.5 h of 8.38%.

Work on `CCOC1COC2(CCN(CC3CC3)CC2)C1` (configuration not stated) yielded a cytotoxicity at 70.5 h of 11.6%.

In the case of `Cc1cccc(CN2C[C@@H]3COC[C@]3(CNC(=O)C3CCC3)C2)c1`, the cytotoxicity at 70.5 h is reported as -7.15%.

With `CS(=O)(=O)N1CCC2(CC1)CC(NCc1ccco1)c1ccccc12` (configuration not stated) the cytotoxicity at 70.5 h was -1.03%.

Work on `CC(C)C(=O)NC1CC2(CCN(CC(=O)N(C)C)CC2)c2ccccc21` (configuration not stated) yielded a cytotoxicity at 70.5 h of -2.53%.

`COCC(=O)NCc1cc(=O)n2c(n1)CN(C)CCC2` showed a cytotoxicity at 70.5 h of -3.22%.

For `FC1(F)CCN(Cc2ccccn2)CC12CCN(c1ncccn1)C2` (configuration not stated), the cytotoxicity at 70.5 h was -7.15%.

With `COc1nn(C)c2c1CCCN(C(=O)c1cccc(C)n1)C2` the cytotoxicity at 70.5 h was -2.8%.

For `CCC1=N[C@@]2(CC[C@@H]3CN(Cc4ccc(C)cc4)C[C@@H]32)C(=O)N1C`, the cytotoxicity at 70.5 h was -2.71%.

`O=C(NCc1cccs1)[C@H]1CO[C@H]2CCN(C3CCCC3)C[C@H]2C1` showed a cytotoxicity at 70.5 h of 4.95%.

Work on `Cn1cccc1C(=O)N1CC2(CCN(C(=O)c3cccnc3)C2)C1` yielded a cytotoxicity at 70.5 h of -7.36%.

Work on `O=C(c1cc(C2CC2)on1)N1C[C@@H]2COC[C@]2(COc2cccnc2)C1` yielded a cytotoxicity at 70.5 h of -4%.

In the case of `CN1C[C@H](NC(=O)c2cscn2)[C@@H]2OCCC[C@@H]21`, the cytotoxicity at 70.5 h is reported as -6.86%.

With `COCCN1CCC2(COCc3cnc(-c4ccccc4)nc32)C1` (configuration not stated) the cytotoxicity at 70.5 h was -8.87%.

In the case of `Cn1nc(C(=O)N2CCOCC2)c2c1CN(CC1CC1)C2`, the cytotoxicity at 70.5 h is reported as -3.11%.

With `CN(C)CCO[C@H]1CN(Cc2ccco2)[C@@H]2COC[C@H]12` the cytotoxicity at 70.5 h was -3.7%.

`CN(C)C(=O)CN1CCC2(COCc3cnc(-c4cccnc4)nc32)C1` (configuration not stated) gave a cytotoxicity at 70.5 h of -5.78%.

`O=C1COC2(CCN(Cc3cccnc3)CC2)CN1c1ccccc1` gave a cytotoxicity at 70.5 h of -8.85%.

`c1cc(CO[C@@H]2CN(Cc3ccoc3)[C@@H]3CCCO[C@@H]32)ccn1` gave a cytotoxicity at 70.5 h of -16%.

Compound `Cc1cccc(CN2CCO[C@H]3[C@@H](OCc4ccncc4)CC[C@@H]32)n1` has a cytotoxicity at 70.5 h of -7.09%.
